How the values were obtained:
[1] = tested on: TOP10 x pTEXCAT bacteria; assay: Chloramphenicol resistance of TOP10 x pTEXCAT bacteria on agar dishes, colony count and growth; assay type: cell-based, E. coli; set-up: key to qualitative criterion of colony growth: −: absence of growth; +++: maximum growth; settings: for number of colonies counted: 18 h at 37° C., approximately 100 cells seeded
Description: The libraries are screened based on the hypothesis that the clones overexpressing the CAT enzyme will have increased resistance to chloramphenicol.
The numbers (upper row) indicate the number of colonies counted after incubation for 18 h at 37° C., each medium having been seeded with approximately 100 cells.
The index of the lower row is a qualitative criterion of colony growth (−=absence of growth to +++=maximum growth).
This implies that clones which overproduce CAT due to an optimized RBS region may either develop more rapidly than the wild-type population at a chloramphenicol concentration lower than the MIC (mininimum inhibitory concentration), or develop in the presence of chloramphenicol concentrations which are lethal for the wild-type population.

[2] = tested on: chloramphenicol acetyltransferase (CAT) reporter gene; assay: Level of CAT expression by ELISA after IAA induction in Erlenmeyer flask cultures; assay type: cell-based, E. coli; settings: for CAT expression: relative to wild-type vector pTEXwt = 1
Source text: The supernatant is marked “S”.
The results (mean±standard deviation) were obtained on two independent experiments. […]
The methods for determining the expression are those used in the examples above.

[3] = tested on: chloramphenicol acetyltransferase (CAT); settings: IAA-induced extracts
Source text: The resistant colonies are isolated and subcultured several times on the selection medium in order to confirm their resistance phenotype. The clones selected at this stage are then subjected to a series of analyses: (i) extraction of the plasmid (Qiagen kit, Hilden, Germany) and sequencing of the region covering the RBS, (ii) culturing in Erlenmeyer flasks with induction by IAA and then estimation of the level of CAT expression by ELISA assay, (iii) electrophoresis, by SDS-PAGE, of the total proteins extracted from the preceding cultures and staining with Coomassie Blue to visualize total intracellular proteins. The clones are sequenced using the Dye Terminator kit on an ABI 373A sequencer (Perkin Elmer Applied Biosystems, Foster City, Calif.). The cultures in Erlenmeyer flasks are prepared by seeding 25 ml of TSBY (30 g/l tryptic soy broth (DIFCO)+5 g/l yeast extract (Difco)) medium+8 mg/l tetracycline with a colony on a dish or with a bacterial suspension stored at −80° C. Each preculture is incubated on a platform shaken at 200 rpm, at 37° C. overnight. A fraction is transferred into 50 ml of the same medium so as to reach an initial optical density equal to 1. […] The total proteins contained in the I and S fractions are analyzed by electrophoresis under denaturing conditions (SDS-PAGE) and staining with Coomassie Blue.

[4] = chloramphenicol 200 μg/ml, IAA = 0
[5] = chloramphenicol 200 μg/ml, IAA = 25 μg/ml
[6] = chloramphenicol 300 μg/ml, IAA = 25 μg/ml
[7] = chloramphenicol 600 μg/ml, IAA = 0
[8] = chloramphenicol 600 μg/ml, IAA = 25 μg/ml
[9] = chloramphenicol 700 μg/ml, IAA = 0
[10] = chloramphenicol 700 μg/ml, IAA = 25 μg/ml
[11] = chloramphenicol 800 μg/ml, IAA = 0
[12] = chloramphenicol 800 μg/ml, IAA = 25 μg/ml

## O=C(N[C@H](CO)[C@H](O)c1ccc([N+](=O)[O-])cc1)C(Cl)Cl [Chloramphenicol, chloramphenicol]
[1]; [4]
  qualitative criterion of colony growth: +++
  number of colonies counted: 91
[1]; [5]
  qualitative criterion of colony growth: +++
  number of colonies counted: 65
[1]; chloramphenicol 300 μg/ml, IAA = 0
  number of colonies counted: 74
[1]; [6]
  qualitative criterion of colony growth: +++
  number of colonies counted: 76
[1]; chloramphenicol 400 μg/ml, IAA = 0
  number of colonies counted: 73
[1]; chloramphenicol 400 μg/ml, IAA = 25 μg/ml
  number of colonies counted: 53
[1]; chloramphenicol 500 μg/ml, IAA = 0
  number of colonies counted: 47
[1]; chloramphenicol 500 μg/ml, IAA = 25 μg/ml
  number of colonies counted: 71
[1]; [7]
  qualitative criterion of colony growth: −
  number of colonies counted: 0
[1]; [8]
  qualitative criterion of colony growth: −
  number of colonies counted: 1
[1]; [9]
  qualitative criterion of colony growth: −
  number of colonies counted: 0
[1]; [10]
  qualitative criterion of colony growth: −
  number of colonies counted: 0
[1]; [11]
  qualitative criterion of colony growth: −
  number of colonies counted: 0
[1]; [12]
  qualitative criterion of colony growth: −
  number of colonies counted: 0

## O=C(O)C=Cc1c[nH]c2ccccc12 [IAA, 3-β indole acrylic acid]
[1]; between 300 and 600 μg/ml of chloramphenicol
  development of TOP10 x pTEXCAT bacteria in the presence of IAA versus its absence: more strongly

## pTEX9′: clone from the (R7N6) library, SEQ ID No. 31, deletion of region Ile4Asn8 (DNA UGAGGAGAGUAAUCAUGAAAGCAGCGGAAUUC; expressed or natural sequence)
[2]
  CAT expression: 249

## pTEX10′: vector derived from pTEX9′ with additional deletion, SEQ ID No. 33 (DNA UGAGGAGAGUAAUCAUGAAAGCAGAAUUC)
[2]
  CAT expression: 253

## pTEX11′: vector derived from pTEX9′ with additional deletion, SEQ ID No. 35 (DNA UGAGGAGAGUAAUCAUGAAAGAAUUC)
[2]
  CAT expression: 124

## pTEX12′: vector derived from pTEX9′, initiation codon directly upstream of the cloning site, SEQ ID No. 37 (DNA UGAGGAGAGUAAUCAUGGAAUUC)
[2]
  CAT expression: 155

## pTEXCAT: wild-type reference plasmid: pTEXmp18 (Ptrp promoter, TrpL leader) with the CAT reporter gene cloned at EcoRI/PstI; SEQ ID No. 19 (DNA AAGGGUAUCUAGAAUUAUGAAAGCAAUUUUCGUACUGAAUGCGGAAUUC)
[3]
  CAT band (28 kDa) on SDS-PAGE gel: only a band of low intensity
[2]
  CAT expression: 1
[2]; relative, level 1 arbitrarily assigned to pTEXCAT, mean±standard deviation of two independent experiments
  Level of CAT expression: 1
